# In US20240138404A1, “DISPENSER AND METHOD OF USE THEREOF” (S.C. JOHNSON & SON, INC., priority 2019, published 2024):
# Legend:
# [1] = Emanation (release) rate of active agent from three-layer substrate 250 by weight loss over 40 days (Example 1, FIG. 13); format: physicochemical; settings: substrate 250, approx. 30 cm^2, dosed with approx. 75 mg active agent
# [2] = Emanation rate of transfluthrin from dispensing device 200 with substrate 250 in a sealed chamber over 75 days (Example 2, FIGS. 15A-15C); format: physicochemical; settings: for constant emanation rate: dose about 2400 mg
# Description: In connection with the examples herein, the emanation rates and the amount of active agent, e.g., an amount of transfluthrin, remaining in the substrate of the examples herein were measured by analyzing the weight loss of a particular substrate over time. More particularly, the amount of active agent remaining within a particular substrate may be calculated by first measuring the substrate 250 prior to dosing the substrate 250 with the active agent (or volatile material) and then subtracting that value from the weight of the substrate 250 at any given time after dosing. For example, with reference to Example 1, an initial weight of the substrate 250 was measured, the substrate 250 was dosed with an active agent (i.e., transfluthrin or metofluthrin), and a weight of the substrate 250 was measured multiple times after initial dosage and after emanation of the active agent into the ambient environment. The initial weight of the substrate 250 was then subtracted from a weight of the substrate 250 after initial dosage and this value indicated the remaining active agent within the substrate 250. Further, after determining the remaining active agent within the substrate 250, the amount of active agent (or volatile material) emanated to the ambient environment may also be calculated by subtracting the amount of active agent remaining in the substrate 250 from the initial dosage amount of the active agent. All weight measurements can be performed on an analytical scale. Further, the examples herein were conducted in a closed environment, such as a sealed chamber, having a controlled airflow rate.
# In this example, the substrate 250 includes three layers, such as the first layer 252, the second layer 254, and the third layer 256. Further, in this embodiment, the first layer 252 is a woven material having a honeycomb weave pattern, a pore size of 3 mm and a thickness of 0.3 mm; the second layer 254 is a fibrous material constructed from polyester and the substrate 250 has a surface density of about 340 g/m^2; and the third layer 256 is a woven material having a honeycomb weave pattern, a pore size of 3 mm and a thickness of 0.3 mm. The substrate 250 was dosed with about 2400 mg of transfluthrin and the concentration of the transfluthrin within the substrate 250 at different locations in a sealed chamber was measured over a period of 75 days. During this trial, the substrate 250 was exposed to an airflow of about 4.8 meters/minute.
# [3] = first location within sealed chamber (FIG. 15A)
# [4] = second location within sealed chamber (FIG. 15B)
# [5] = third location within sealed chamber (FIG. 15C)
SMILES,constant linear release (emanation) rate [1],time over which the substrate emanated the volatile material at constant linear rate [1],"period of emanation at constant, linear rate, from linear regression lines ([2]; extrapolated from the linear regression lines of FIGS. 15A-15C)","period of constant emanation [2, 3]","constant emanation rate [2, 3]","period of constant emanation [2, 4]","constant emanation rate [2, 4]","period of constant emanation [2, 5]","constant emanation rate [2, 5]"
CC1(C)[C@H](C=C(Cl)Cl)[C@H]1C(=O)OCc1c(F)c(F)cc(F)c1F [transfluthrin],about 1.5 mg/day,approximately 36 days,exceeding one year,greater than 70 days,about 4 mg/day,greater than 70 days,about 6 mg/day,greater than 70 days,about 4 mg/day
C/C=C/C1C(C(=O)OCc2c(F)c(F)c(COC)c(F)c2F)C1(C)C (centres unmarked) [metofluthrin],about 1.9 mg/day,20 days,,,,,,,
